Laboratory results from US11052092B2, “N-{[2-(piperidin-1-yl)phenyl](phenyl)methyl}-2-(3-oxo-3,4-dihydro-2H-1,4-benzoxazin-7-yl)acetamide derivatives and related compounds as ROR-gamma modulators for treating autoimmune diseases” (Genfit, priority 2017, dated 2021).

Molecular target: T1, human RORγt (Homo sapiens, UniProt P51449)
T1 construct: the full-length cDNA of human RORγt; expressed in transfected cells; host or cells: COS-7 (monkey kidney)
T1 sequence (P51449 1-497 isoform P51449-2): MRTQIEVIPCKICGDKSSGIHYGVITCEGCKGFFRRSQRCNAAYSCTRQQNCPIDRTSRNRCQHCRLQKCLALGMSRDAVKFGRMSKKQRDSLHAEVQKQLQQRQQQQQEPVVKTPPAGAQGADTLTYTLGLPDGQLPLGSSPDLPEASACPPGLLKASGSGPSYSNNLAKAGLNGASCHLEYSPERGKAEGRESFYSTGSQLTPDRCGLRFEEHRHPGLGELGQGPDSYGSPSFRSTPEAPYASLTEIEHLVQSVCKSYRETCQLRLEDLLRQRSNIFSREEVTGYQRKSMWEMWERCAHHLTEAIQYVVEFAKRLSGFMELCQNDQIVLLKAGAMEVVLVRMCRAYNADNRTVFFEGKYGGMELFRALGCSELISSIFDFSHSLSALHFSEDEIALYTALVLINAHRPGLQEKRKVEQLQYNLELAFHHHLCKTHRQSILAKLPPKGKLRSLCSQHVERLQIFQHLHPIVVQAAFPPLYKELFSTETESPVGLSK
Experiment: RORE Luciferase/RORγt transactivation assay
Assay type: cell-based
Conditions: COS-7 cells transfected with human IL-17 promoter luciferase reporter and RORγt plasmid; 20 h with compound; read-out: IC50, RORγt activity inhibition
Protocol: It is well known that RORγ binds to a conserved non-coding sequence (CNS) enhancer element in the IL-17 promoter.
Culture medium was changed every 2 days.
The 4.3 Kb human IL-17 promoter containing the RORγ-specific CNS enhancer element was PCR amplified from human genomic DNA and cloned into a pGL3-TKLuc2Cp reporter plasmid.
The luciferase reporter plasmid and the RORγt overexpression plasmid were transfected into COS-7 cell line using 4 μLJetPEI™/μg of DNA. Briefly, 150 ng of DNA (ration ½ between RORE-Tk Luc2Cp and cDNA RORγt or the empty vector for the negative control) was served to transfect adherent COS-7 cells in a […] culture flask, in complete medium (see cos-7 cell line culture).
Cells were then detached (using trypsin) and washed by centrifugation at 300 g for 10 minutes. Cell pellet was resuspended in serum free/phenol red free DMEM and seeded in 384 well plates at a density of 10000 cells/well and then incubated for 4 h at 37° C.
Compounds were dissolved in 100% DMSO to obtain 10 mM stock solutions. For each compound, test concentrations were diluted in serum free/phenol red free DMEM using the Genesis Freedom 200™ (TECAN) and added to the cells to obtain a 0.3% DMSO final concentration (in a final volume of 40 μL per well).
The luciferase activity was then measured with 40 μL/well steady-Glo Luciferase assay system (Promega, Madison, Wis.) and after incubation at room temperature for 30 minutes. The luminescence was estimated using the Ultra384 reader (TECAN). Data were collected and analyzed using GraphPad Prism software (GraphPad Software V5.02, San Diego Calif. USA). IC50 in μM and Emax in % were reported for each compound.

**Q.** How did the IC50 turn out when `Cc1ccc(C(NC(=O)C2(c3ccc4c(c3)OCO4)CC2)c2ccc(C)o2)c(C)c1` (stereo not shown) [Cpd. 137, 1-(2H-1,3-benzodioxol-5-yl)-N-[(2,4-dimethylphenyl)(5-methylfuran-2-yl)methyl]cyclopropane-1-carboxamide] was run?
**A.** 10 to 100 nM

**Q.** Which IC50 does the source give for `Cc1ccc(C(NC(=O)C2(c3ccc4c(c3)OCC(=O)N4)CC2)c2ccco2)c(C)c1` (stereo not shown) [Cpd. 139, N-[(2,4-dimethylphenyl)(furan-2-yl)methyl]-1-(3-oxo-3,4-dihydro-2H-1,4-benzoxazin-7-yl)cyclopropane-1-carboxamide] here?
**A.** 10 to 100 nM

**Q.** How did the IC50 turn out when `Cc1ccc(C(NC(=O)C2(c3ccc4c(c3)OCC(=O)N4)CC2)c2ccc(Cl)cc2)c(C)c1` (stereo not shown) [Cpd. 140, N-[(4-chlorophenyl)(2,4-dimethylphenyl)methyl]-1-(3-oxo-3,4-dihydro-2H-1,4-benzoxazin-7-yl)cyclopropane-1-carboxamide] was run?
**A.** 1000 to 10000 nM

**Q.** For `Cc1ccc(C(NC(=O)C2(c3ccc4c(c3)CCC4=O)CC2)c2ccc(C)o2)c(C)c1` (stereo not shown) [Cpd. 141, N-[(2,4-dimethylphenyl)(5-methylfuran-2-yl)methyl]-1-(1-oxo-2,3-dihydro-1H-inden-5-yl)cyclopropane-1-carboxamide], which IC50 is on record?
**A.** 100 to 1000 nM

**Q.** For `Cc1ccc(C(NC(=O)C2(c3ccc4c(c3)OCC(=O)N4)CC2)c2cccc(Cl)c2)c(C)c1` (stereo not shown) [Cpd. 143, N-[(3-chlorophenyl)(2,4-dimethylphenyl)methyl]-1-(3-oxo-3,4-dihydro-2H-1,4-benzoxazin-7-yl)cyclopropane-1-carboxamide], which IC50 is on record?
**A.** 10 to 100 nM

**Q.** How did the IC50 turn out when `Cc1ccc(C(NC(=O)C2(c3ccc4c(n3)OCC(=O)N4)CC2)c2ccc(C)o2)c(C)c1` (stereo not shown) [Cpd. 144, N-[(2,4-dimethylphenyl)(5-methylfuran-2-yl)methyl]-1-{2-oxo-1H,2H,3H-pyrido[2,3-b][1,4]oxazin-6-yl}cyclopropane-1-carboxamide] was run?
**A.** 10 to 100 nM

**Q.** How did the IC50 turn out when `Cc1ccc(C(NC(=O)C2(c3ccc4c(c3)OCC(=O)N4)CC2)c2ccc(Cl)o2)c(N2CCCCC2)c1` (stereo not shown) [Cpd. 145, N-[(5-chlorofuran-2-yl)[4-methyl-2-(piperidin-1-yl)phenyl]methyl]-1-(3-oxo-3,4-dihydro-2H-1,4-benzoxazin-7-yl)cyclopropane-1-carboxamide] was run?
**A.** 10 to 100 nM

**Q.** With `Cc1ccc(C(NC(=O)C2(c3ccc4c(c3)C(C)(C)C(=O)N4)CC2)c2ccc(C)o2)c(C)c1` (stereo not shown) [Cpd. 146, 1-(3,3-dimethyl-2-oxo-2,3-dihydro-1H-indol-5-yl)-N-[(2,4-dimethylphenyl)(5-methylfuran-2-yl)methyl]cyclopropane-1-carboxamide] as the compound, how does the IC50 read?
**A.** 10 to 100 nM

**Q.** For `COc1ccc(C(NC(=O)C2(c3ccc4c(c3)OCS(=O)(=O)N4)CC2)c2ccc(C)o2)c(Br)c1` (stereo not shown) [Cpd. 147, N-[(2-bromo-4-methoxyphenyl)(5-methylfuran-2-yl)methyl]-1-(2,2-dioxo-1,3-dihydro-4,2,1-benzoxathiazin-6-yl)cyclopropane-1-carboxamide], which IC50 is on record?
**A.** 10 to 100 nM

**Q.** How did the IC50 turn out when `Cc1ccc(C(NC(=O)C2(c3ccc4c(c3)OCS(=O)(=O)N4)CC2)c2ccc(C)o2)c(N(C)C)c1` (stereo not shown) [Cpd. 148, N-{[2-(dimethylamino)-4-methylphenyl](5-methylfuran-2-yl)methyl}-1-(2,2-dioxo-1,3-dihydro-4,2,1-benzoxathiazin-6-yl)cyclopropane-1-carboxamide] was run?
**A.** 100 to 1000 nM

**Q.** For `Cc1ccc(C(NC(=O)C2(c3ccc4c(c3)OCS(=O)(=O)N4)CC2)c2ccc(Cl)o2)c(C)c1` (stereo not shown) [Cpd. 149, N-[(5-chlorofuran-2-yl)(2,4-dimethylphenyl)methyl]-1-(2,2-dioxo-1,3-dihydro-4,2,1-benzoxathiazin-6-yl)cyclopropane-1-carboxamide], which IC50 is on record?
**A.** 10 to 100 nM

**Q.** Which IC50 does the source give for `Cc1ccc(C(NC(=O)Cc2ccc3c(c2)OCS(=O)(=O)N3)c2ccc(C)o2)c(Br)c1` (stereo not shown) [Cpd. 150, N-[(2-bromo-4-methylphenyl)(5-methylfuran-2-yl)methyl]-2-(2,2-dioxo-1,3-dihydro-4,2,1-benzoxathiazin-6-yl)acetamide] here?
**A.** 100 to 1000 nM

**Q.** `Cc1ccc(C(NC(=O)C2(c3ccc4c(ccn4CCC(=O)O)c3)CC2)c2ccc(C)o2)c(C)c1` (stereo not shown) [Cpd. 152, 3-[5-(1-{[(2,4-dimethylphenyl)(5-methylfuran-2-yl)methyl]carbamoyl}cyclopropyl)-1H-indol-1-yl]propanoic acid] was tested. Which IC50 did it give?
**A.** 10 to 100 nM

**Q.** Which IC50 does the source give for `Cc1cnc(C(NC(=O)C2(c3ccc4c(c3)OCS(=O)(=O)N4)CC2)c2ccc(C)o2)c(C)c1` (stereo not shown) [Cpd. 153, N-[(3,5-dimethylpyridin-2-yl)(5-methylfuran-2-yl)methyl]-1-(2,2-dioxo-1,3-dihydro-4,2,1-benzoxathiazin-6-yl)cyclopropane-1-carboxamide] here?
**A.** 100 to 1000 nM

**Q.** `Cc1ccc(C(NC(=O)C2(c3ccc4c(ccn4CCC(=O)O)c3)CC2)c2ccc(C)o2)c(N2CCCCC2)c1` (stereo not shown) [Cpd. 154, 3-{5-[1-({[4-methyl-2-(piperidin-1-yl)phenyl](5-methylfuran-2-yl)methyl}carbamoyl)cyclopropyl]-1H-indol-1-yl}propanoic acid] was tested. Which IC50 did it give?
**A.** < 10 nM

**Q.** `Cc1ccc(C(NC(=O)C2(c3ccc4c(c3)CCC4O)CC2)c2ccc(C)o2)c(C)c1` (stereo not shown) [Cpd. 155, N-[(2,4-dimethylphenyl)(5-methylfuran-2-yl)methyl]-1-(1-hydroxy-2,3-dihydro-1H-inden-5-yl)cyclopropane-1-carboxamide] was tested. Which IC50 did it give?
**A.** 10 to 100 nM

**Q.** `Cc1ccc(C(NC(=O)C2(c3ccc4c(c3)OCC(=O)N4)CC2)c2ccc(C)o2)c(N(C)C)c1` (stereo not shown) [Cpd. 156, N-{[2-(dimethylamino)-4-methylphenyl](5-methylfuran-2-yl)methyl}-1-(3-oxo-3,4-dihydro-2H-1,4-benzoxazin-7-yl)cyclopropane-1-carboxamide] was tested. Which IC50 did it give?
**A.** 10 to 100 nM

**Q.** With `Cc1ccc(C(NC(=O)C2(c3ccc4c(c3)CS(=O)(=O)N4CC3CCOCC3)CC2)c2ccc(C)o2)c(C)c1` (stereo not shown) [Cpd. 157, N-[(2,4-dimethylphenyl)(5-methylfuran-2-yl)methyl]-1-[1-(oxan-4-ylmethyl)-2,2-dioxo-1,3-dihydro-2,1-benzothiazol-5-yl]cyclopropane-1-carboxamide] as the compound, how does the IC50 read?
**A.** < 10 nM

**Q.** How did the IC50 turn out when `Cc1ccc(C(NC(=O)C2(c3cc(F)c4c(c3)CC(=O)N4)CC2)c2ccc(C)o2)c(C)c1` (stereo not shown) [Cpd. 158, N-[(2,4-dimethylphenyl)(5-methylfuran-2-yl)methyl]-1-(7-fluoro-2-oxo-2,3-dihydro-1H-indol-5-yl)cyclopropane-1-carboxamide] was run?
**A.** 10 to 100 nM

**Q.** For `Cc1ccc(C(NC(=O)C2(c3ccc4c(c3)C(F)(F)C(=O)N4)CC2)c2ccc(C)o2)c(C)c1` (stereo not shown) [Cpd. 159, 1-(3,3-difluoro-2-oxo-2,3-dihydro-1H-indol-5-yl)-N-[(2,4-dimethylphenyl)(5-methylfuran-2-yl)methyl]cyclopropane-1-carboxamide], which IC50 is on record?
**A.** 100 to 1000 nM

**Q.** How did the IC50 turn out when `Cc1ccc(C(NC(=O)C2(c3ccc4c(c3)CS(=O)(=O)N4C)CC2)c2ccc(Cl)o2)c(C)c1` (stereo not shown) [Cpd. 160, N-[(5-chlorofuran-2-yl)(2,4-dimethylphenyl)methyl]-1-(1-methyl-2,2-dioxo-1,3-dihydro-2,1-benzothiazol-5-yl)cyclopropane-1-carboxamide] was run?
**A.** 10 to 100 nM

**Q.** With `Cc1ccc(C(NC(=O)C2(c3ccc4c(c3)OCO4)CC2)c2ccc(C)o2)c(Br)c1` (stereo not shown) [Cpd. 161, 1-(2H-1,3-benzodioxol-5-yl)-N-[(2-bromo-4-methylphenyl)(5-methylfuran-2-yl)methyl]cyclopropane-1-carboxamide] as the compound, how does the IC50 read?
**A.** 100 to 1000 nM

**Q.** `Cc1ccc(C(NC(=O)C2(c3ccc4c(c3)CS(=O)(=O)N4CC3CCOCC3)CC2)c2ccc(C)o2)c(N2CCCCC2)c1` (stereo not shown) [Cpd. 162, N-{[4-methyl-2-(piperidin-1-yl)phenyl](5-methylfuran-2-yl)methyl}-1-[1-(oxan-4-ylmethyl)-2,2-dioxo-1,3-dihydro-2,1-benzothiazol-5-yl]cyclopropane-1-carboxamide] was tested. Which IC50 did it give?
**A.** 10 to 100 nM

**Q.** With `Cc1ccc(C(NC(=O)C2(c3ccc4c(c3)CS(=O)(=O)N4CC3CCOCC3)CC2)c2ccc(C)o2)c(Br)c1` (stereo not shown) [Cpd. 163, N-[(2-bromo-4-methylphenyl)(5-methylfuran-2-yl)methyl]-1-[1-(oxan-4-ylmethyl)-2,2-dioxo-1,3-dihydro-2,1-benzothiazol-5-yl]cyclopropane-1-carboxamide] as the compound, how does the IC50 read?
**A.** 10 to 100 nM

**Q.** For `Cc1ccc(C(NC(=O)C2(c3ccc4c(c3)OCO4)CC2)c2ccc(C)o2)c(N2CCCCC2)c1` (stereo not shown) [Cpd. 164, 1-(2H-1,3-benzodioxol-5-yl)-N-{[4-methyl-2-(piperidin-1-yl)phenyl](5-methylfuran-2-yl)methyl}cyclopropane-1-carboxamide], which IC50 is on record?
**A.** 100 to 1000 nM
